Test results reported in US11639345B2, “Methionine metabolic pathway inhibitors” (MIGAL—GALILEE RESEARCH INSTITUTE LTD., priority 2018, dated 2023).

How the values were obtained:
Arabidopsis thaliana = Arabidopsis thaliana root growth inhibition; type: in vivo; conditions: 168 h, root length ratio vs DMSO control, 50 μM compound, lower values indicate shorter root, larger effect, read-out: Arabidopsis (relative to DMSO)
Method: Finally, FIGS. 7a-7o are the photos of the Arabidopsis thaliana plants and the inhibition of their roots growth by the compounds of the present invention. These experiments were conducted as follows. Seeds were washed with 70% ethanol for one minute and then with sterile water. Sterilisation was performed with 50% bleaching solution (3%) and 0.2% Triton x-100 for ten minutes followed by a five-time wash with sterile water. The seeds were placed in six well-plates with half Murashige and Skoog medium (MS; Duchefa, Haarlem, Netherlands), containing 1% sucrose (w/v), pH 5.8. The plates with Arabidopsis thaliana seeds were placed at 4° C. for two days and then transferred for seven days to growth chamber (22±2° C.) at day/light cycles of 16/8 h. The plates were placed vertically. In each plate, a control including 0.1% DMSO in the medium was added. The compounds of the present invention were tested for their herbicidal efficiency by diluting 1000 times a 50 mM stock in DMSO leading to a final concentration of 50 μM with 0.1% DMSO.
In Tables 1, 2 and 4 above, Arabidopsis root length was measured after addition of 50-μM compound compared with the negative control (DMSO) treatment. Length values indicate the ratio between non-treated plates ([…]) and the length after the addition of 50 uM of each compound. Lower values indicate shorter root length, and consequently, larger effect.

[1] = tested on: E. coli lacking the endogenic MetB CGS gene, transformed to express the CGS from Arabidopsis; test: Growth of engineered E. coli expressing Arabidopsis CGS in M9 minimal media, with and without methionine; type: cell-based; conditions: for E. coli Assay LE395 (0-5): score 0-5, growth of E. coli with Arabidopsis CGS gene in M9 minimal media; for E. coli specificity (MOA): score, growth with vs without external methionine (40 mg/L)
Method: In addition to the direct binding evaluation, specific assay to test the compounds activity and specificity were also developed. In this assay, E. coli cells, lacking the endogenic MetB CGS gene and transformed to express the CGS from Arabidopsis, were used. These cells were grown on M9 minimal media with and without external methionine supplemented to the cells, in the presence of the compounds of the embodiments. These selected compounds of the embodiments, capable of inhibiting the cell growth on M9, but incapable of affecting the cell growth when supplemented with methionine, were validated as methionine-pathway specific inhibitors.
In this assay, Methionine auxotroph E. coli mutant was transformed with PQE-30 vector containing the Arabidopsis CGS gene as previously described in Yael Hacham et al., Plant Physiol., February 2002, 128(2): 454-462. In order to test the effect of the small molecule inhibitors on the CGS and methionine pathway, growth curves of the E. coli in M9 minimal media with […] were measured with and without the addition of external methionine (40 mg/L) in the presence of variable compound concentrations. E. coli growth curves were measured by following the optical density at 600 nm of bacteria in 96 well-plate placed within Tecan M200 plate reader in orbital shaking mode at 37° C. The slope of each curve was estimated using the ‘linest’ function in Excel.

Roquette = Roquette assay spray; type: in vivo
Tobacco CGS [2] = biological target: T1, Tobacco CGS (Nicotiana tabacum, UniProt Q9ZPL5); test: Malachite Green Phosphate assay of direct CGS activity; type: biochemical; design: 6xHIS (cleaved yes); GB1 solubility tag (cleaved yes); made in house; host or cells: E. coli BL-21; conditions: 2 h; 50 μM compound, 1 μM CGS, two-hour incubation at 25° C.; read-out: Malachite Green Phosphate Assay (% to DMSO, 50 μM)
T1 sequence (Q9ZPL5 79-540): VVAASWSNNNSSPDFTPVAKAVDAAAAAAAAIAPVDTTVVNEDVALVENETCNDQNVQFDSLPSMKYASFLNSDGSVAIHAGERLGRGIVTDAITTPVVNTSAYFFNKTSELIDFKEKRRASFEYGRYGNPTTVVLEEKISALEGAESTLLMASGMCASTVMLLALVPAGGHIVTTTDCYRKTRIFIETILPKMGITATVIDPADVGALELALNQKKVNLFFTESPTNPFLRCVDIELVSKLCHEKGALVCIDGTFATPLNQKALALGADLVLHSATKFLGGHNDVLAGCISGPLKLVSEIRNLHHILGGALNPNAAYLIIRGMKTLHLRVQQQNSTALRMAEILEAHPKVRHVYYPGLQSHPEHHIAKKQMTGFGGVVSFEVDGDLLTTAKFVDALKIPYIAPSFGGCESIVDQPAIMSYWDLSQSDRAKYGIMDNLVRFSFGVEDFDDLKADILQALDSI
Method: As discussed above, the first reaction in methionine biosynthesis in plants is catalyzed by the CGS enzyme. In this reaction, the formation of cystathionine is conducted by the γ-replacement of the phosphoryl substituent of O-phospho-homoserine by cysteine and consecutive release of an orthophosphate group.
Expression of recombinant CGS was done by transforming the pET-11 vector containing the DNA sequence of Tobacco CGS with a 6xHIS tag and GB1 solubility tag followed by TEV cleavage site into BL-21 cells. These cells were cultured at 37° C. and optical density (OD)=0.8 protein at 600 nm, and the expression was induced by addition of 1 mM IPTG for 16 hours at 25° C. The protein was purified to homogeneity onto nickel column and cleaved by o/n dialysis with the TEV protease. A second nickel column was used to separate the cleaved CGS from the TEV and GB1 solubility tag.
The direct activity of CGS was tested using the Malachite Green Phosphate Assay Kit (Sigma-Aldrich, cat # MAK307-1KT). It is a highly sensitive and robust experiment used to measure the release of free orthophosphate group based on quantification of the green-coloured complex formed between Malachite Green, molybdate, and free orthophosphate. The rapid colour formation from the reaction can be conveniently measured on a spectrophotometer via the absorbance at 620 nm.
The assay mixture (100 μl) contained 50 mM MOPS—NaOH (pH 7.5), 150 mM NaCl, 0.1 mM PLP and 1 μM purified CGS. The compounds of the present invention were added at a final concentration of 50 μM and reactions were initiated by adding 2 mM cysteine and 3 mM O-phospho-L-homo-serine. After two-hour incubation at 25° C., 80 μL of each sample were transferred into a new 96 well-plate containing 20 μl of Malachite Green Reagent and incubated for additional 30 min at 25° C. Colour development was measured by a plate reader Tecan M200 (620 nm).

Tobacco CGS [3] = biological target: T1, Tobacco CGS; test: Micro Scale Thermophoresis (MST) direct binding to CGS; design: 6xHIS (N, cleaved yes); GB1 solubility tag (N, cleaved yes); made in house; host or cells: E. coli BL21; conditions: score 0-5; binding to labelled Tobacco CGS
Method: The direct binding of the compounds of the embodiments to the CGS was tested by Micro Scale Thermophoresis (MST). In the MST assay, the CGS protein was labelled with a fluorophore, the samples were heated, and changes in fluorescence were measured as a function of the ligand concentration. In the MST assay, similar to the expression and purification described above, the recombinant Tobacco CGS protein was expressed in E. coli BL21 cells and purified to homogeneity. For that particular purpose, the pET-11 vector containing the DNA sequence of Tobacco CGS with an N-terminus […] tag followed by a TEV-cleavable GB1 solubility tag was cloned and transformed into the bacteria cells. Cells were cultured to OD=0.8, and protein expression was induced by the addition of 1 mM IPTG. The cells were cultured for additional 16 hours temperature 25° C. Following cellular lysis, the soluble fraction was passed through the nickel column and the bound HIS-tagged protein was eluted by 300 mM imidazole. Then, the tags […] and GB1 were cleaved in dialysis o/n and the mixtures passed again through the nickel column to separate the CGS from the TEV and HIS-GB1 constructs. As a final step the CGS was run on S75 size exclusion chromatography. Thus, the MST assay was performed to measure the biding of the compounds to the CGS protein. For this purpose, the CGS was labelled with commercially available amine reactive fluorophore (Cat # MO-[…], NanoTemper) according to the manufacture instructions. The MST binding curves were then measured using the Monolith NT.115 apparatus by incubating the labelled protein with the indicated compounds in a dose-response manner.

## Cc1cc(O)nc(C(=O)Nc2cccc(-c3nc(C)cc(O)n3)c2)c1 [IML-64]
Arabidopsis thaliana
  activity at 50 µM: 20%
[1]
  E. coli Assay LE395 (0-5): 2
  E. coli specificity (MOA): 4
TEV (relative to DMSO)
  TEV (relative to DMSO): 0.65
Roquette
  Roquette assay spray (single average): 1.0
  Roquette assay spray (twice average): 2.0
Tobacco CGS [2]
  remaining activity at 50 µM: 15.2%
Tobacco CGS [3]
  MST Tobacco (0-5): 4

## COc1cccc(C(=O)Nc2cccc(-c3cn(Cc4ccccc4)nn3)c2)c1 [IML-69]
Arabidopsis thaliana
  activity at 50 µM: 22%
TEV (relative to DMSO)
  TEV (relative to DMSO): 0.71
Roquette
  Roquette assay spray (single average): 1.0
  Roquette assay spray (twice average): 2.0
Tobacco CGS [2]
  remaining activity at 50 µM: 30%
Tobacco CGS [3]
  MST Tobacco (0-5): 5

## O=C(O)C1CN(C(=O)c2cc(-c3ccccc3)on2)c2ccccc21 (stereo not shown) [IML-124]
Arabidopsis thaliana
  activity at 50 µM: 0%
[1]
  E. coli Assay LE395 (0-5): 2
  E. coli specificity (MOA): 5
TEV (relative to DMSO)
  TEV (relative to DMSO): 0.30
Roquette
  Roquette assay spray (twice average): 3.0

## O=C(O)C1CN(C(=O)c2cnn(-c3ccccc3)c2)c2ccccc21 (stereo not shown) [IML-162]
Arabidopsis thaliana
  activity at 50 µM: 38%
[1]
  E. coli Assay LE395 (0-5): 3
  E. coli specificity (MOA): 5
TEV (relative to DMSO)
  TEV (relative to DMSO): 0.20
Roquette
  Roquette assay spray (single average): 2.0

## O=C(O)C1Cc2ccccc2N1C(=O)c1cc(-c2ccccc2)on1 (stereo not shown) [IML-163]
Arabidopsis thaliana
  activity at 50 µM: 0%
[1]
  E. coli Assay LE395 (0-5): 4
  E. coli specificity (MOA): 5
TEV (relative to DMSO)
  TEV (relative to DMSO): 0.31
Roquette
  Roquette assay spray (twice average): 4.0

## O=C(O)C1CN(C(=O)c2cc(-c3cccnc3)on2)c2ccccc21 (stereo not shown) [IML-180]
Arabidopsis thaliana
  activity at 50 µM: 58%
[1]
  E. coli Assay LE395 (0-5): 1
  E. coli specificity (MOA): 5
TEV (relative to DMSO)
  TEV (relative to DMSO): 0.25
Tobacco CGS [3]
  MST Tobacco (0-5): 3

## CCc1nc(-c2cccc(NC(=O)c3cccc(OC)c3)c2)no1 [IML-215]
Arabidopsis thaliana
  activity at 50 µM: 6%
[1]
  E. coli Assay LE395 (0-5): 3
  E. coli specificity (MOA): 3
TEV (relative to DMSO)
  TEV (relative to DMSO): 0.39
Roquette
  Roquette assay spray (single average): 1.0
  Roquette assay spray (twice average): 2.0
Tobacco CGS [2]
  remaining activity at 50 µM: 12.8%
Tobacco CGS [3]
  MST Tobacco (0-5): 2

## CCc1noc(-c2cccc(NC(=O)c3cccc(OC)c3)c2)n1 [IML-216]
Arabidopsis thaliana
  activity at 50 µM: 20%
[1]
  E. coli Assay LE395 (0-5): 3
  E. coli specificity (MOA): 5
TEV (relative to DMSO)
  TEV (relative to DMSO): 0.57
Roquette
  Roquette assay spray (single average): 2.0
  Roquette assay spray (twice average): 2.0
Tobacco CGS [3]
  MST Tobacco (0-5): 2

## O=C(Nc1cccc(-c2csc(Nc3ccc(C(=O)O)c(O)c3)n2)c1)c1ccccc1 [IML-219]
[1]
  E. coli Assay LE395 (0-5): 1
  E. coli specificity (MOA): 5
Tobacco CGS [2]
  remaining activity at 50 µM: 28.3%
Tobacco CGS [3]
  MST Tobacco (0-5): 4

## COc1ccc(Cc2nc(-c3cccc(NC(=O)c4cccc(F)c4)c3)no2)cc1 [IML-220]
[1]
  E. coli Assay LE395 (0-5): 3
  E. coli specificity (MOA): 5
Tobacco CGS [2]
  remaining activity at 50 µM: 10.8%

## CCc1nc(-c2cc(CC(=O)O)cc(NC(=O)c3cccc(OC)c3)c2)no1 [IML-228]
Tobacco CGS [2]
  remaining activity at 50 µM: 27.4%

## CCc1nc(-c2cncc(NC(=O)c3cccc(OC)c3)c2)no1 [IML-229]
Arabidopsis thaliana
  activity at 50 µM: 10%
TEV (relative to DMSO)
  TEV (relative to DMSO): 0.44
Tobacco CGS [2]
  remaining activity at 50 µM: 19.6%

## CCn1cc(-c2cccc(NC(=O)c3cccc(OC)c3)c2)nn1 [IML-230]
Arabidopsis thaliana
  activity at 50 µM: 29%
Roquette
  Roquette assay spray (twice average): 1.0
Tobacco CGS [2]
  remaining activity at 50 µM: 21.7%

## Cc1cc(O)nc(-c2cccc(NC(=O)c3c(O)cccc3F)c2)n1 [IMS-220]
[1]
  E. coli Assay LE395 (0-5): 4
  E. coli specificity (MOA): 5
Tobacco CGS [2]
  remaining activity at 50 µM: 15.9%
Tobacco CGS [3]
  MST Tobacco (0-5): 3
